This passage reports Activity, IC50 and inhibition results from ChEMBL document CHEMBL4706679, “Targeting Necrosis: Elastase-like Protease Inhibitors Curtail Necrotic Cell Death Both In Vitro and in Three In Vivo Disease Models” (J Med Chem, 2021).

The structures appear in SMILES notation. The source made the active and inactive calls. The rule behind the calls is not given here. Where a SMILES comes first, the peptide text is derived from it. The star is where a group is joined. MeOSuc = COC(=O)CCC(=O)*; Cbz = O=C(OCc1ccccc1)*; CH2Cl = ClC*

For data set [1], the system named is PC-12. Kind of data set: Protection against KCN-induced necrosis in […] cells assessed as reduction in KCN-induced cell death at 20 to 100 uM incubated for 5 hrs by LDH release assay. Format: functional, cell-based. The conditions noted are these: dose 20-100 µM.
Data set [2] has as its system Mus musculus. As to the kind of experiment: Protection against necrosis in C57BL/6J mouse model of paracetamol-induced […] assessed as reduction in liver AST levels at 30 mg/kg, ip dosed 4 hrs after paracetamol injection and measured 24 hrs post paracetamol injection by. It is filed as functional. More on the design: scale not given: the % may be the effect or the level left. Particulars: time 28 hrs.

In data set [3] the test system is Mus musculus. As to the kind of experiment: Protection against necrosis in C57BL/6J mouse model of paracetamol-induced […] assessed as reduction in liver GOT levels at 30 mg/kg, ip dosed 4 hrs after paracetamol injection and measured 24 hrs post paracetamol injection by. It is filed as functional. Also noted: scale not given: the % may be the effect or the level left. The conditions noted are these: time 28 hrs.

Data set [4] deals with Mus musculus. As to the kind of experiment: Protection against necrosis in C57BL/6J mouse model of paracetamol-induced […] assessed as reduction in liver ALT levels at 10 mg/kg, ip dosed 4 hrs after paracetamol injection and measured 24 hrs post paracetamol injection by. It is filed as functional, organism-based. The conditions noted are these: time 28.0 hrs.
The test system of data set [5] is Mus musculus. As to the kind of experiment: Protection against necrosis in C57BL/6J mouse model of paracetamol-induced […] assessed as reduction in liver AST levels at 10 mg/kg, ip dosed 4 hrs after paracetamol injection and measured 24 hrs post paracetamol injection by. It is filed as functional, organism-based. The conditions noted are these: time 28.0 hrs.

For data set [6], the system named is Mus musculus. Kind of data set: Protection against necrosis in C57BL/6J mouse model of paracetamol-induced […] assessed as reduction in liver GPT levels at 10 mg/kg, ip dosed 4 hrs after paracetamol injection and measured 24 hrs post paracetamol injection by. It is filed as functional, organism-based. The conditions noted are these: time 28.0 hrs.

Data set [7] concerns Mus musculus. Kind of data set: Protection against necrosis in C57BL/6J mouse model of paracetamol-induced […] assessed as reduction in liver GOT levels at 10 mg/kg, ip dosed 4 hrs after paracetamol injection and measured 24 hrs post paracetamol injection by. It is filed as functional, organism-based. The conditions noted are these: time 28.0 hrs.
Data set [8] relates to Mus musculus. Kind of data set: Protection against necrosis in C57BL/6J mouse model of paracetamol-induced […] assessed as reduction in liver GPT levels at 30 mg/kg, ip dosed 4 hrs after paracetamol injection and measured 24 hrs post paracetamol injection by. It is filed as functional. Also noted: scale not given: the % may be the effect or the level left. The conditions noted are these: time 28 hrs.

In data set [9] the test system is Mus musculus. Kind of data set: Protection against necrosis in C57BL/6J mouse model of paracetamol-induced […] assessed as reduction in liver ALT levels at 30 mg/kg, ip dosed 4 hrs after paracetamol injection and measured 24 hrs post paracetamol injection by. It is filed as functional. Also noted: scale not given: the % may be the effect or the level left. The conditions noted are these: time 28 hrs.

In data set [10] the test system is Mus musculus. Kind of data set: Protection against necrosis in Balb/c mouse model of model of myocardial infarction/reperfusion assessed as reduction in infarct size at 30 mg/kg, iv followed by ischemia and reperfusion and subsequent second dosing at 30 mg/kg, iv and measured after 6 hrs post reperfusion by TTC staining based analysis. Format: functional. More on the design: scale not given: the % may be the effect or the level left. The conditions noted are these: dose 60 mg/kg.

Data set [11] relates to PC-12. As to the kind of experiment: Protection against KCN-induced necrosis in […] cells assessed as reduction in KCN-induced cell death at 10 to 300 uM incubated for 5 hrs by LDH release assay. It is filed as functional, cell-based. Particulars: dose 10-300 µM. For orientation: Release of lactate dehydrogenase indicates damage to the cell membrane.
For data set [12], the system named is Mus musculus. As to the kind of experiment: Protection against necrosis in C57BL/6J mouse model of traumatic brain injury assessed as decrease in neuronal damage in brain at 100 ug, icv measured 1 hr post injury by neurological severity score based analysis. It is filed as functional, organism-based. The conditions noted are these: dose 100.0 µg.
Data set [13] can be described thus: Toxicity in sham control C57BL/6J mouse at 100 ug, icv. The conditions noted are these: in vivo, icv_or_intrathecal, dose 100 µg.
The nature of data set [14]: (§1) Inhibition KCN-induced elastase like activity in human U-937 cells at 0.01 to 100 uM using substrate MAAPV. It is filed as cell-based.
The subject of data set [15] is U-937. The description is as §1. Format: cell-based. Particulars: dose 0.01-100 µM.
For data set [16], the system named is Mus musculus. As to the kind of experiment: Protection against necrosis in C57BL/6J mouse model of traumatic brain injury assessed as decrease in necrotic space in brains at 100 ug, icv measured 24 hrs post injury by TTC staining based analysis. It is filed as functional. Also noted: scale not given: the % may be the effect or the level left. Particulars: dose 100 µg.

Data set [17] deals with U-937. Kind of data set: Inhibition KCN-induced elastase like activity in human U-937 cells using substrate MAAPV. Format: cell-based.
In data set [18] the test system is U-937. Kind of data set: Inhibition anti-Fas antibody-induced elastase like activity in human U-937 cells at 100 uM by substrate gel electrophoresis. It is filed as cell-based.
Data set [19] concerns U-937. As to the kind of experiment: Inhibition oligomycin-induced elastase like activity in human U-937 cells at 100 uM by substrate gel electrophoresis. Format: cell-based.

Turning to `CC(C)(C)C(=O)Oc1ccc(S(=O)(=O)Nc2ccccc2C(=O)NCC(=O)O)cc1`, in the data set with PC-12 [1], the Activity result is “Dose-dependent effect”.

Turning to `O=C(c1csc(N2CCCCC2)n1)N1CCCC1`, the Activity with Mus musculus [2], in the data set with Mus musculus [3], in the data set with Mus musculus [8] and with Mus musculus [9] was 100% each time. Moreover, the result in the data set with Mus musculus [4], in the data set on Mus musculus [5], in the data set on Mus musculus [6] and with Mus musculus [7] was Active.

With `CCC(=O)N1CCN=C1N1CCN(C)CC1`, the Activity in the data set on Mus musculus [10] came to 30%.

As usually defined, the IC50 is the concentration that gives 50% inhibition. `COC(=O)CCC(=O)N[C@@H](C)C(=O)N[C@@H](C)C(=O)N1CCC[C@H]1C(=O)N[C@H](C(=O)CCl)C(C)C` (MeOSuc-AAPV-CH2Cl): the Activity result in the data set on PC-12 [11] is “Dose-dependent effect”; in data set [13], “Non-Toxic”; in the data set with Mus musculus [16] it was 50%. In the data set with Mus musculus [12], the outcome was Active. This compound showed an IC50 in data set [14] of 2740 nM. Moreover, in the data set with U-937 [15], the inhibition entry is “Dose-dependent effect”.

`O=C[C@H](Cc1ccc(O)cc1)NC(=O)[C@H](Cc1ccccc1)NC(=O)OCc1ccccc1` (Cbz-Phe-Tyr-aldehyde): the inhibition result in the data set on U-937 [17] was “inactive”.

For `CCOC(=O)[C@H]1O[C@@H]1C(=O)N[C@@H](CC(C)C)C(=O)NCCC(C)C`, the inhibition result in the data set on U-937 [17] is “inactive”.

`Cc1ccc(S(=O)(=O)N[C@@H](Cc2ccccc2)C(=O)CCl)cc1`: the inhibition result with U-937 [18] and in the data set with U-937 [19] was “inactive” throughout.

As for `CC(C)C[C@H](NC(=O)N[C@H](C(=O)N[C@@H](CCC(N)=O)C(=O)N[C@@H](C)C=O)C1CCNC(=N)N1)C(=O)O` (some centres undefined), the result in the data set with PC-12 [11] was inactive. The inhibition entry with U-937 [18] and in the data set with U-937 [19] was “Active” each time.

Turning to `CN1C(=O)Cc2ccc(-c3ccc(C[C@@H](C#N)NC(=O)[C@H]4N[C@@H]5CC[C@H]4C5)c(F)c3)cc21`, the Activity result with PC-12 [11] was “Dose-dependent effect”.
